Laboratory results as given in US8981111B2 (priority 2008, dated 2015).

Assay: log P (HPLC/MS data of the preparation examples)
Details: linear gradient 10% to 95% acetonitrile
[1] = method [b]: LC-MS at pH 2.7, 0.1% formic acid in water / acetonitrile
[2] = LC-MS, method [b]: pH 2.7 with 0.1% formic acid in water and acetonitrile

Row | SMILES | log p [1] | log p [2]
1 | Cn1c(C(=NOCc2nccc(N(C(=O)C3CC3)C(=O)C3CC3)n2)c2ccccc2)cnc1C(=O)C1CC1 [Example 260] | 3.73^[b] | 
2 | CCCc1ccc(C(=O)Nc2cccc(CON=C(c3ccccc3)c3ncnn3C)n2)cc1 [Example 261] | 4.24^[b] | 
3 | CCC(C)CC(=O)Nc1cccc(CON=C(c2ccccc2)c2nccn2C)n1 (centres unmarked) [Example 262] | 2.54^[b] | 
4 | CCCC(C)C(=O)Nc1cccc(CON=C(c2ccccc2)c2nccn2C)n1 (centres unmarked) [Example 263] | 2.54^[b] | 
5 | Cn1ccnc1C(=NOCc1cccc(NC(=O)Cc2cccs2)n1)c1ccccc1 [Example 264] | 2.23^[b] | 
6 | Cn1ccnc1C(=NOCc1cccc(NC(=O)Cc2ccccc2Cl)n1)c1ccccc1 [Example 265] | 2.61^[b] | 
7 | COc1ccc(CC(=O)Nc2cccc(CON=C(c3ccccc3)c3nccn3C)n2)cc1 [Example 266] | 2.33^[b] | 
8 | COc1cccc(CC(=O)Nc2cccc(CON=C(c3ccccc3)c3nccn3C)n2)c1 [Example 267] | 2.37^[b] | 
9 | COc1ccccc1CC(=O)Nc1cccc(CON=C(c2ccccc2)c2nccn2C)n1 [Example 268] | 2.47^[b] | 
10 | Cn1ccnc1C(=NOCc1cccc(NC(=O)Cc2ccccc2F)n1)c1ccccc1 [Example 269] | 2.4^[b] | 
11 | COCCC(=O)Nc1cccc(CON=C(c2ccccc2)c2nccn2C)n1 [Example 270] | 4.53^[b] | 
12 | CSCCC(=O)Nc1cccc(CON=C(c2ccccc2)c2nccn2C)n1 [Example 271] | 1.9^[b] | 
13 | Cn1ccnc1C(=NOCc1cccc(NC(=O)OCCF)n1)c1ccccc1 [Example 272] | 1.81^[b] | 
14 | COc1ccc(CC(=O)Nc2cccc(CON=C(c3cccc(F)c3)c3nccn3C)n2)cc1 [Example 273] | 2.54^[b] | 
15 | COc1cccc(CC(=O)Nc2cccc(CON=C(c3cccc(F)c3)c3nccn3C)n2)c1 [Example 274] | 2.58^[b] | 
16 | COc1ccccc1CC(=O)Nc1cccc(CON=C(c2cccc(F)c2)c2nccn2C)n1 [Example 275] | 2.66^[b] | 

Row | SMILES | log p [1] | log p [2]
17 | Cn1ccnc1C(=NOCc1cccc(NC(=O)Cc2ccccc2F)n1)c1cccc(F)c1 [Example 276] | 2.59^[b] | 
18 | COCCC(=O)Nc1cccc(CON=C(c2cccc(F)c2)c2nccn2C)n1 [Example 277] | 1.69^[b] | 
19 | CC(C(=O)Nc1cccc(CON=C(c2cccc(F)c2)c2nccn2C)n1)c1ccccc1 (centres unmarked) [Example 278] | 2.92^[b] | 
20 | Cc1cc(C(F)(F)F)nn1CC(=O)Nc1cccc(CON=C(c2ccccc2)c2nccn2C)n1 [Example 279] |  | 2.61^[b]
21 | Cn1ccnc1C(=NOCc1cccc(NC(=O)COc2ccccc2)n1)c1ccccc1 [Example 280] |  | 2.58^[b]
22 | Cn1ccnc1C(=NOCc1cccc(NC(=O)CCC2CCCC2)n1)c1ccccc1 [Example 281] |  | 3.19^[b]
23 | Cn1ccnc1C(=NOCc1cccc(NC(=O)CCC2CCCCC2)n1)c1ccccc1 [Example 282] |  | 3.67^[b]
24 | Cn1ccnc1C(=NOCc1cccc(NC(=O)CSc2ccccc2)n1)c1ccccc1 [Example 283] |  | 2.63^[b]
25 | Cn1ccnc1C(=NOCc1cccc(NC(=O)CCC2CCCC2)n1)c1cccc(F)c1 [Example 284] |  | 3.44^[b]
26 | Cn1ccnc1C(=NOCc1cccc(NC(=O)CCC2CCCCC2)n1)c1cccc(F)c1 [Example 285] |  | 3.92^[b]
27 | Cn1ccnc1C(=NOCc1cccc(NC(=O)CSc2ccccc2)n1)c1cccc(F)c1 [Example 286] |  | 2.82^[b]
28 | CSCCC(=O)Nc1cccc(CON=C(c2cccc(F)c2)c2nccn2C)n1 [Example 287] |  | 2.07^[b]
29 | CCC(C)CC(=O)Nc1cccc(CON=C(c2cccc(F)c2)c2nccn2C)n1 (centres unmarked) [Example 288] |  | 2.77^[b]
30 | CCCC(C)C(=O)Nc1cccc(CON=C(c2cccc(F)c2)c2nccn2C)n1 (centres unmarked) [Example 289] |  | 2.77^[b]
31 | Cn1ccnc1C(=NOCc1cccc(NC(=O)Cc2cccs2)n1)c1cccc(F)c1 [Example 290] |  | 2.44^[b]
32 | Cn1ccnc1C(=NOCc1cccc(NC(=O)Cc2ccccc2Cl)n1)c1cccc(F)c1 [Example 291] |  | 2.8^[b]
